# Reference: article PMC11111404, “Discovery of potent small-molecule inhibitors of lipoprotein(a) formation” (Nature, 2024)
# Several values for one entry are separate records, joined by “and”; a condition that tells them apart may be missing. Equal entries are not always repeated.
# Columns and labels:
# Lp(a) = Lp(a) levels in cynomolgus monkeys; assay type: in vivo, cynomolgus monkey (Macaca fascicularis); set-up: Lp(a): unit not given here; conditions: for pCFB (Lp(a) pct_chng_from_baseline) / Lp(a): cynomolgus monkey, individual animals
# Experimental: Female or male Chinese Macaca fascicularis cynomolgus monkeys (as described in the figure legends) of unspecified ages with body weight ranging from 2.0 kg to 5.0 kg were housed in cages with a standard light cycle (12-h light, 12-h dark) at room temperature (20–26 °C); the relative humidity ranged from 30% to 70%. Monkeys were given fruits, vegetables or dietary enrichment as a form of environmental enrichment, and various cage enrichment devices. Purina Lab diet 5048C was provided BID and individual monkeys were identified by cage card. The monkeys were randomized to treatment groups by body weight and baseline plasma Lp(a) concentration, as determined by a commercially available Randox assay (Randox LP2757), using a BRAT for the study. In an example cynomolgus monkey study in which 39 monkeys were prescreened for baseline Lp(a) levels, the average Lp(a) level was 350 ± 57 µg ml^−1 (range 53–1,667 µg ml^−1). Monkeys were dosed orally with vehicle (purified water) or compounds QD or BID for 14 days, at dose levels and frequencies as previously described for each compound. Plasma samples were collected on days before dosing to establish baseline Lp(a) and after the morning dose during the study. Lp(a) levels were measured by an investigator who was blinded to group allocation using the Randox assay, and were quantified relative to the calibrator series (Randox LP3404). Data were analysed in GraphPad Prism v.9.5.1. The Lp(a) percentage change from before dosing in non-human primates was analysed by repeated measures ANOVA in SAS v.9.4 (SAS). At each time point, the Lp(a) percentage change for each treated group was compared with vehicle by the Bonferroni method.
# plasmin activity = target: T1, plasmin activity (Rattus norvegicus, UniProt Q01177); assay: Rat plasma plasmin (plasminogen) activity ex vivo after oral dosing; assay type: in vivo; conditions: rat plasma, individual animal; for PLG activity (Vmax), % change from Vehicle: vehicle mean 431.7
# T1 construct: Plasma samples were collected via the abdominal aorta; from tissue; host or cells: Citrated plasma of orally dosed male Sprague Dawley rats
# T1 sequence (Q01177 20-812 limits assumed): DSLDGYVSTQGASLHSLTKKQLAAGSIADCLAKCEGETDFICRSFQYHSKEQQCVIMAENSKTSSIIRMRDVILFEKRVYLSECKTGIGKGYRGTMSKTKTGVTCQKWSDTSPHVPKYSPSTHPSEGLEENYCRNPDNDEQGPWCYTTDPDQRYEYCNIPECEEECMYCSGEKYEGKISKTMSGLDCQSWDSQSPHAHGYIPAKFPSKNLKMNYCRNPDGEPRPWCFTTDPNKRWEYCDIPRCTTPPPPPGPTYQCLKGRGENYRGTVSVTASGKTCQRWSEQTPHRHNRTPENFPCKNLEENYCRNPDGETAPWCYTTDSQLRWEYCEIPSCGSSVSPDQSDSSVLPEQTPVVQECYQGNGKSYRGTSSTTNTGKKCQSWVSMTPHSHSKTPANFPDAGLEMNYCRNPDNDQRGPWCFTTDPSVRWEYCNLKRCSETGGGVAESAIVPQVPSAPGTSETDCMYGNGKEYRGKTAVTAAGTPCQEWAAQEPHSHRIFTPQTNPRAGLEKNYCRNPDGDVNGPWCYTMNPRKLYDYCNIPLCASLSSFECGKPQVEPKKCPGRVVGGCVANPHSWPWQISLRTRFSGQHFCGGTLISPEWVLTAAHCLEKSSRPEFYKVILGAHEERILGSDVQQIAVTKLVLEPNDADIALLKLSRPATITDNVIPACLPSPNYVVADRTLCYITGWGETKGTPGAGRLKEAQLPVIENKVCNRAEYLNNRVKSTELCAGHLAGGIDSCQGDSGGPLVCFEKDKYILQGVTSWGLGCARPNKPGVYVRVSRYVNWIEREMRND
# Experimental: Male Sprague Dawley rats (Charles River, average body weight 310 g, aged eight to nine weeks old) were housed in cages with a standard light cycle (12-h light, 12-h dark), at room temperature (22 ± 4 °C), with a relative humidity of 30–70%. Rats were identified by numbers on the cage cards. After arrival, rats were fed on a normal diet (Harlan Teklad diet 2014) and randomized to treatment groups (n = 5 per group) by baseline plasma plasminogen concentration and activity using a BRAT. LSN3441732 and LY3473329 were administered QD orally at three dose levels (3.7, 12.3 and 37 mg kg^−1; 3.2, 10.5 and 31.6 mg kg^−1 per dose, respectively) or vehicle (10 ml kg^−1, 1% HEC, 0.25% Tween-80, Antifoam) for four days. Terminal blood was drawn under general anaesthesia 24 h after the day-4 oral dose. Plasma samples were collected via the abdominal aorta into a premeasured anticoagulant BD Vacutainer used for blood collection (2.7 ml, buffered sodium citrate). The liver was flash frozen in liquid nitrogen. To measure plasminogen activity, 100 µl plasma per well was added to a 96-well plate (Corning) and the following were added to the indicated concentrations: 7.5 mM CaCl2 and 117 mM NaCl. Wells were mixed and warmed to 37 °C. Urokinase (Millipore) was added at 125 U per well and the plate was incubated at 37 °C for 4 min. The plasminogen substrate Chromogenix S-2251 (DiaPharma) was added to a concentration of 3.3 mM. The mixture was added and the plate was sealed and placed in a prewarmed plate reader, shaken, and the absorbance read every 30 s for 2 h. The maximum slope for each curve was determined and the percentage inhibition was calculated relative to untreated controls. Plasminogen protein was measured using ELISA kits for rat (Abcam ab157740) according to the manufacturer’s instructions. Plasminogen activity (percentage) and mass (µg ml^−1) in rat were analysed by ANOVA in JMP 16.1.0. The percentage reduction of plasminogen activity and mass for each treated group was compared with vehicle by Dunnett’s method.
# [1] = 3473329 dose 3.2 mpk, 3.2 mg/kg
# [2] = 3473329 dose 10.5 mpk, 10.5 mg/kg
# [3] = 3473329 dose 31.6 mpk, 31.6 mg/kg
smiles,measurement,setting,value
O=C(O)[C@@H](Cc1cccc(CN(Cc2cccc(C[C@H](C(=O)O)[C@H]3CCNC3)c2)Cc2cccc(C[C@H](C(=O)O)[C@H]3CCNC3)c2)c1)[C@H]1CCNC1 [LY3473329],pCFB (Lp(a) pct_chng_from_baseline),"Lp(a); 1mpk, Day 5, 1 mg/kg",-22.1371 and -5.098 and -28.881 and -15.8475 and 3.588 and -15.9311
same,Lp(a),"Lp(a); 1mpk, Day 9, 4hr, 1 mg/kg",81.717 and 123.954 and 9.293 and 31.114 and 64.385
same,pCFB (Lp(a) pct_chng_from_baseline),"Lp(a); 1mpk, Day 9, 1 mg/kg",-25.7489 and 7.768 and -40.9481 and -41.984 and -4.946 and -25.2635
same,pCFB (Lp(a) pct_chng_from_baseline),"Lp(a); 1mpk, Day 14, 1 mg/kg",-43.1939 and -2.975 and -53.0914 and -46.914 and -15.7924 and -42.2472
same,Lp(a),"Lp(a); 10mpk group, Day 1, Pre dose (baseline), 10 mg/kg",63.144 and 63.676 and 112.151 and 49.481 and 65.725 and 30.09
same,pCFB (Lp(a) pct_chng_from_baseline),"Lp(a); 10mpk, Day 1, 10 mg/kg",-0.54 and 5.215 and -3.008 and -7.112 and -1.928 and 0.1728
same,pCFB (Lp(a) pct_chng_from_baseline),"Lp(a); 10mpk, Day 3, 10 mg/kg",-40.1463 and -31.9398 and -31.5575 and -28.9606 and -53.8653 and -27.9495
same,Lp(a),"Lp(a); 10mpk, Day 5, 4hr, 10 mg/kg",69.663 and 26.971 and 31.738 and 21.72
same,pCFB (Lp(a) pct_chng_from_baseline),"Lp(a); 10mpk, Day 5, 10 mg/kg",-39.4923 and -41.2165 and -37.8846 and -45.4922 and -51.7109 and -27.8166
same,Lp(a),"Lp(a); 10mpk, Day 9, 4hr, 10 mg/kg",37.879 and 46.471 and 59.699 and 19.275 and 28.08 and 18.466
same,pCFB (Lp(a) pct_chng_from_baseline),"Lp(a); 10mpk, Day 9, 10 mg/kg",-40.0117 and -27.0196 and -46.7691 and -61.0457 and -57.2765 and -38.6308
same,Lp(a),"Lp(a); 10mpk, Day 14, 4hr, 10 mg/kg",27.525 and 31.412 and 53.912 and 14.404 and 16.367 and 13.601
same,pCFB (Lp(a) pct_chng_from_baseline),"Lp(a); 10mpk, Day 14, 10 mg/kg",-56.4092 and -50.669 and -51.9291 and -70.8898 and -75.0978 and -54.7989
same,Lp(a),"Lp(a); 100mpk group, Day 1, Pre dose (baseline), 100 mg/kg",63.503 and 134.003 and 31.483 and 50.567 and 61.834
same,Lp(a),"Lp(a); 100mpk, Day 1, 4hr, 100 mg/kg",57.552 and 102.207 and 18.95 and 36.698 and 61.471
same,pCFB (Lp(a) pct_chng_from_baseline),"Lp(a); 100mpk, Day 1, 100 mg/kg",-39.8088 and -27.427 and -0.5871 and -9.371 and -23.7278
same,Lp(a),"Lp(a); 100mpk, Day 3, 4hr, 100 mg/kg",37.977 and 67.885 and 16.507 and 23.074 and 46.465
same,pCFB (Lp(a) pct_chng_from_baseline),"Lp(a); 100mpk, Day 3, 100 mg/kg",-47.5685 and -54.3695 and -24.8553 and -40.1965 and -49.3407
same,Lp(a),"Lp(a); 100mpk, Day 5, 4hr, 100 mg/kg",41.338 and 90.201 and 17.421 and 23.304 and 43.695
same,pCFB (Lp(a) pct_chng_from_baseline),"Lp(a); 100mpk, Day 5, 100 mg/kg",-32.6873 and -44.6654 and -53.9146 and -29.335 and -34.9039
same,Lp(a),"Lp(a); 100mpk, Day 9, 4hr, 100 mg/kg",23.771 and 69.54 and 11.012 and 15.587 and 35.753
same,pCFB (Lp(a) pct_chng_from_baseline),"Lp(a); 100mpk, Day 9, 100 mg/kg",-48.1056 and -65.0224 and -69.1755 and -42.1791 and -62.5671
same,Lp(a),"Lp(a); 100mpk, Day 14, 4hr, 100 mg/kg",22.568 and 43.526 and 4.973 and 14.913 and 14.296
same,pCFB (Lp(a) pct_chng_from_baseline),"Lp(a); 100mpk, Day 14, 100 mg/kg",-67.5186 and -84.2042 and -70.5084 and -76.88 and -64.4615
same,reduction of median Lp(a) levels compared with baseline,"Lp(a); cynomolgus monkeys, 100 mg kg^−1 QD",up to 71%
same,"PLG activity (Vmax), Plasminogen (mean of replicates)",plasmin activity; [1],454.0 and 451.6 and 414.5 and 449.4 and 437.1
same,"PLG activity (Vmax), Replicate 1",plasmin activity; [1],455.671 and 447.416 and 413.515 and 443.630 and 436.745
same,"PLG activity (Vmax), Replicate 2",plasmin activity; [1],452.252 and 455.835 and 415.508 and 455.110 and 437.378
same,"PLG activity (Vmax), % change from Vehicle",plasmin activity; [1],5.15% and 4.60% and -3.99% and 4.08% and 1.23%
same,"PLG activity (Vmax), Plasminogen (mean of replicates)",plasmin activity; [2],426.8 and 390.7 and 429.5 and 340.1 and 383.7
same,"PLG activity (Vmax), Replicate 1",plasmin activity; [2],431.402 and 387.065 and 425.922 and 337.633 and 378.355
same,"PLG activity (Vmax), Replicate 2",plasmin activity; [2],422.258 and 394.290 and 433.134 and 342.491 and 389.046
same,"PLG activity (Vmax), % change from Vehicle",plasmin activity; [2],-1.14% and -9.51% and -0.51% and -21.24% and -11.13%
same,"PLG activity (Vmax), Plasminogen (mean of replicates)",plasmin activity; [3],357.4 and 336.9 and 317.3 and 381.6 and 333.2
same,"PLG activity (Vmax), Replicate 1",plasmin activity; [3],356.862 and 337.031 and 314.998 and 380.162 and 336.487
same,"PLG activity (Vmax), Replicate 2",plasmin activity; [3],357.898 and 336.831 and 319.531 and 383.010 and 329.925
same,"PLG activity (Vmax), % change from Vehicle",plasmin activity; [3],-17.22% and -21.96% and -26.52% and -11.62% and -22.82%
